# According to article PMC4207896, “Cytotoxic Benzophenanthridine and Furoquinoline Alkaloids from Zanthoxylum buesgenii (Rutaceae)” (Chemistry Central Journal, 2014):
# Read-outs that look alike come from different tables or passages of the source.
# Experiments:
# Assay type in all cases: cell-based
# [1] = test system: CEM/ADR5000 leukemia cells; assay: Resazurin reduction cytotoxicity assay, CEM/ADR5000; conditions: Homo sapiens, read-out: IC50 values
# Experimental: (§1) The resazurin reduction assay was performed to assess the cytotoxicity of compounds and doxorubicin as control drug towards various sensitive and drug-resistant cancer cell lines, including the CCRF-CEM and CEM/ADR5000 leukemia, MDA-MB231 breast cancer cells and its resistant subline MDA-MB231/BCRP, HCT116p53^+/+ colon cancer cells and its resistant subline HCT116p53^−/−, U87MG glioblastoma cells and its resistant subline U87MG. ΔEGFR and HepG2 hepatocarcinoma cells and normal AML12 hepatocytes. The assay is based on the reduction of the indicator dye, resazurin, to the highly fluorescent resorufin by viable cells. […] Briefly, adherent cells were detached by treatment with 0.25% trypsin/EDTA (Invitrogen, Darmstadt Germany) and an aliquot of 1 × 10^4 cells was placed in each well of a 96-well cell culture plate (Thermo Scientific, Langenselbold, Germany) in a total volume of 200 μL. Cells were allowed to attach overnight and then were treated with different concentrations of compounds. For suspension cells, aliquots of 2 × 10^4 cells per well were seeded in 96-well-plates in a total volume of 100 μL. The studied compounds were immediately added in varying concentrations in an additional 100 μL of culture medium to obtain a total volume of 200 μL/well. After 72 h, resazurin (Sigma-Aldrich, Schnelldorf, Germany) (20 μL, 0.01% w/v) in distilled H2O was added to each well and the plates were incubated at 37°C for 4 h. Fluorescence was measured on an Infinite M2000 ProTM plate reader (Tecan, Crailsheim, Germany) using an excitation wavelength of 544 nm and an emission wavelength of 590 nm. Each assay was done at least twice with six replicates each. The viability was evaluated based on a comparison with untreated cells. IC50 values represent the compound concentrations required to inhibit 50% of cell proliferation and were calculated from a calibration curve by linear regression using Microsoft Excel.
# U87MG. ΔEGFR cells = assay: Resazurin reduction cytotoxicity assay, U87MG.ΔEGFR; conditions: Homo sapiens, U-87 MG, 72 h, read-out: IC50 values
# Experimental: as §1
# CCRF-CEM leukemia cells = assay: Resazurin reduction cytotoxicity assay, CCRF-CEM; conditions: Homo sapiens, 72 h, read-out: IC50 values
# Experimental: as §1
# [2] = test system: HepG2 hepatocarcinoma cells; assay: Resazurin reduction cytotoxicity assay, HepG2; conditions: Homo sapiens, read-out: IC50 values
# Experimental: as §1
# [3] = test system: HCT116 (p53+/+) colon cancer cells; assay: Resazurin reduction cytotoxicity assay, HCT116 (p53+/+); conditions: Homo sapiens, read-out: IC50 values
# Experimental: as §1
# [4] = test system: nine tested cancer cell lines; assay: Resazurin reduction cytotoxicity assay, panel of nine cancer cell lines; conditions: all nine cancer cell lines, 72 h, read-out: IC50 values towards all the nine tested cancer cell lines
# Experimental: as §1, with “The studied compounds were immediately added in varying concentrations in an additional 100 μL of culture medium to obtain a total volume of 200 μL/well. After 72 h, resazurin (Sigma-Aldrich, Schnelldorf, Germany) (20 μL, 0.01% w/v) in distilled H2O was added to each well and the plates were incubated at 37°C for 4 h.” left out, “Each assay was done at least twice with six replicates each.” left out, “IC50 values represent the compound concentrations required to inhibit 50% of cell proliferation and were calculated from a calibration curve by linear regression using Microsoft Excel.” left out
# normal AML12 hepatocytes = assay: Resazurin reduction cytotoxicity assay, normal AML12 hepatocytes; conditions: Mus musculus, read-out: IC50 values
# Experimental: as §1
# U87MG glioblastoma cells = assay: Resazurin reduction cytotoxicity assay, U87MG; conditions: Homo sapiens, U-87 MG, 72 h, read-out: IC50 values
# Experimental: as §1
# [5] = test system: MDA-MB231 breast cancer cells; assay: Resazurin reduction cytotoxicity assay, MDA-MB231; conditions: Homo sapiens, read-out: IC50 values
# Experimental: as §1
# MDA-MB231/BCRP cells = assay: Resazurin reduction cytotoxicity assay, MDA-MB231/BCRP; conditions: MDA-MB-231/BCRP, 72 h, read-out: IC50 values
# Experimental: as §1
# [6] = test system: HCT116 (p53-/-) colon cancer cells; assay: Resazurin reduction cytotoxicity assay, HCT116 (p53-/-); conditions: Homo sapiens, read-out: IC50 values
# Experimental: as §1
# [7] = CEM/ADR5000 leukemia (resistant), resazurin assay, 72 h
# [8] = U87MG. ΔEGFR resistant subline, resazurin assay
# [9] = CCRF-CEM leukemia (sensitive), resazurin assay
# [10] = HepG2 hepatocarcinoma cells, resazurin assay, 72 h
# [11] = normal AML12 hepatocytes, resazurin assay, 72 h
# [12] = U87MG glioblastoma cells, resazurin assay
# [13] = MDA-MB-231, MDA-MB231 breast cancer cells, resazurin assay, 72 h
# [14] = MDA-MB231/BCRP resistant subline, resazurin assay
SMILES,"IC50 [1, 7]",IC50 (U87MG. ΔEGFR cells; [8]),IC50 (CCRF-CEM leukemia cells; [9]),"IC50 [2, 10]",IC50 (normal AML12 hepatocytes; [11]),IC50 (U87MG glioblastoma cells; [12]),"IC50 [5, 13]",IC50 (MDA-MB231/BCRP cells; [14]),"IC50 ([1]; ADR5000, 72 h)",IC50 (U87MG. ΔEGFR cells),IC50 (CCRF-CEM leukemia cells; CCRF-CEM),"IC50 ([2]; HepG2, 72 h)","IC50 ([3]; HCT-116, 72 h)","IC50 (normal AML12 hepatocytes; AML12, 72 h)",IC50 (U87MG glioblastoma cells),"IC50 ([5]; MDA-MB-231, 72 h)",IC50 (MDA-MB231/BCRP cells),"IC50 ([6]; HCT-116, 72 h)",other results
"COc1c(O)ccc2c1C(O)N(C)c1c-2ccc2cc3c(cc12)OCO3 (stereo not drawn) [Compound 1, 1-methoxy-12-methyl-12,13-dihydro-[1,3]dioxolo[4′,5′:4,5]benzo[1,2-c]phenanthridine-2,13-diol]",31.6 ± 3.48 µM,61.8 ± 4.68 µM,0.24 ± 0.01 µM,22.4 ± 1.97 µM,> 107 µM,60.6 ± 7.29 µM,30.1 ± 4.12 µM,65 ± 5.37 µM,,,,,,,,,,,"IC50 ([3]; HCT-116, HCT116 (p53+/+) colon cancer cells, resazurin assay, 72 h): 42.5 ± 3.22 µM; IC50 [4]: ≤ 65 µM; IC50 ([6]; HCT-116, HCT116 (p53-/-) resistant subline, resazurin assay, 72 h): 62.3 ± 4.41 µM"
"COc1c(O)ccc2c1c[n+](C)c1c3cc4c(cc3ccc21)OCO4 [Compound 2, isofagaridine]",,,,,,,,,20.4 ± 2.16 µM,115 ± 13.8 µM,0.3 ± 0.04 µM,26.7 ± 3.15 µM,87.1 ± 7.55 µM,> 120 µM,105 ± 9.16 µM,41.4 ± 3.44 µM,114 ± 9.82 µM,> 120 µM,
"COc1c2cc3c(cc2nc2occc12)OCO3 [Compound 3, maculine]",,,,,,,,,63.1 ± 3.75 µM,> 165 µM,89.1 ± 6.22 µM,> 165 µM,> 165 µM,> 165 µM,> 165 µM,> 165 µM,> 165 µM,> 165 µM,
"COc1cc2nc3occc3c(OC)c2cc1OC [Compound 4, kokusaginine]",,,,,,,,,44.6 ± 3.92 µM,> 154 µM,49.8 ± 5.04 µM,90.8 ± 8.86 µM,120 ± 13.1 µM,> 154 µM,70.1 ± 6.4 µM,62 ± 7.24 µM,> 154 µM,> 154 µM,
"COc1cccc2c1C(=O)c1c(O)c3c(c(O)c1C2=O)C[C@@](O)(C(=O)CO)C[C@@H]3O[C@H]1C[C@H](N)[C@H](O)[C@H](C)O1 [Doxorubicin, doxorubicin, reference compound]",195 ± 14.3 µM,6.11 ± 0.57 µM,0.2 ± 0.06 µM,3.83 ± 0.94 µM,> 73.6 µM,1.06 ± 0.15 µM,1.1 ± 0.28 µM,7.83 ± 0.47 µM,,,,,1.41 ± 0.29 µM,,,,,4.06 ± 0.07 µM,
